We go through one molecule from patent publication US20240350454A1, “BACTERIAL EFFLUX PUMP INHIBITORS AND METHODS OF USE” (THE REGENTS OF THE UNIVERSITY OF COLORADO, priority 2021, published 2024).

Peptide text beside a SMILES is read from it. * marks the point of attachment. βNA = c1ccc2cc(N*)ccc2c1 Bounds are passed on as bounds.

Format in all cases: cell-based
Settings in all cases: comparator at 25 μg/mL in MHB

The subject of assay [1] is S. enterica sp. Enterica S10801. As to the kind of experiment: Doxycycline MIC with selected compound in MHB. As to the method: The wild-type S. enterica serovar Typhimurium strain, SL1344, was initially isolated from the blood of an infected calf. For screening and validation in macrophages, SL1344 sifB::gfp was grown in Luria-Bertani Broth (LB) with 30 μg/ml streptomycin and 30 μg/ml kanamycin to saturation overnight, diluted to an OD of 0.001 and frozen in 100 μL aliquots in 20% glycerol at −80° C. Prior to infection, aliquots were grown in 5 mL cultures of LB with 30 μg/ml streptomycin and 30 μg/ml kanamycin for 18 hours at 37° C. with aeration. Bacterial strains were routinely grown in LB with antibiotics: 30 μg/ml streptomycin, 30 μg/ml kanamycin, 50 μg/ml ampicillin, 10 μg/ml tetracycline, and/or 1.15 μg/ml meropenem. The acrAB::kan and macAB::kan strains were constructed according to known methods. S. enterica subsp. enterica, serovar Typhimurium strain S10801, NR-22067 is a multidrug resistant isolate from a calf with sepsis. This strain and others as indicated were obtained through BEI resources, NIAID, NIH.
MIC for the antibiotic alone (i.e., in the absence of the disclosed compounds) is provided in the first row labeled “None”. […] At this concentration (50 μg/mL), the compounds of the disclosure lacked intrinsic antibacterial activity but a significant improvement in efficacy was still observed. […]

The subject of assay [2] is E. coli BAA-2340. As to the kind of experiment: Doxycycline MIC with selected compound in MHB. The text has this: (§1) MIC for the antibiotic alone (i.e., in the absence of the disclosed compounds) is provided in the first row labeled “None”. […] […] […] Thus, the compounds of the disclosure may be used to potentiate the activity of antibiotics that have lost their efficacy due to efflux.

For assay [3], the system named is K. pneumoniae BAA-1705. In words: Doxycycline MIC with selected compound in MHB.
Description: as §1

Assay [4] deals with K. pneumoniae BAA-2342. In words: Doxycycline MIC with selected compound in MHB.
Description: as §1

The test system of assay [5] is E. cloacae BAA-2341. As to the kind of experiment: Doxycycline MIC with selected compound in MHB. As to the method: (§2) MIC for the antibiotic alone (i.e., in the absence of the disclosed compounds) is provided in the first row labeled “None”. […] […] At this concentration (50 μg/mL), the compounds of the disclosure lacked intrinsic antibacterial activity but a significant improvement in efficacy was still observed. Thus, the compounds of the disclosure may be used to potentiate the activity of antibiotics that have lost their efficacy due to efflux.

Assay [6] has as its system E. Cloacae MB315. As to the kind of experiment: PMB MIC with selected compound in MHB. As to the method: as §2
In assay [7] the test system is E. coli BAA-2340. In words: Ciprofloxacin MIC with selected compound in MHB.
Assay [8] deals with K. pneumoniae BAA-2342. As to the kind of experiment: Ciprofloxacin MIC with selected compound in MHB.
The subject of assay [9] is K. pneumoniae BAA-1705. As to the kind of experiment: Ciprofloxacin MIC with selected compound in MHB. As to the method:
as §2

The test system of assay [10] is E. cloacae BAA-2341. As to the kind of experiment: Ciprofloxacin MIC with selected compound in MHB.
Assay [11] relates to E. coli BAA-2340. As to the kind of experiment: Chloramphenicol MIC with selected compound in MHB. As to the method:
as §2

In assay [12] the test system is P. aeruginosa Focus MB0477. As to the kind of experiment: Chloramphenicol MIC with selected compound in MHB. As to the method:
as §2

Assay [13] has as its system A. baumannii MB306. As to the kind of experiment: Chloramphenicol MIC with selected compound in MHB.
Description: as §1

Assay [14] concerns A. baumannii MB309. As to the kind of experiment: Chloramphenicol MIC with selected compound in MHB.
Description: as §1

Assay [15] has as its system E. cloacae BAA-2341. In words: Chloramphenicol MIC with selected compound in MHB.
Description: as §1

The test system of assay [16] is K. pneumoniae BAA-2342. As to the kind of experiment: Chloramphenicol MIC with selected compound in MHB.
Description: as §1

With `N=C(N)NCCC[C@H](NC(=O)[C@@H](N)Cc1ccccc1)C(=O)Nc1ccc2ccccc2c1` [PAβN] (H-Phe-Arg-βNA), the “Doxycycline MIC” value in assay [1] was 8 µg/mL; in assay [2], not above 1 µg/mL; in [3], not above 1 µg/mL; in assay [4] it was not above 1 µg/mL; in [5] it was not above 1 µg/mL. The “PMB MIC” value in [6] was determined as 32 µg/mL. Besides, the “Ciprofloxacin MIC” value amounted to 16 µg/mL in assay [7], 16 µg/mL in assay [8], 64 µg/mL in [9] and 16 µg/mL in assay [10]. Further, the “Chloramphenicol MIC” value amounted to 8 µg/mL in assay [11]; 1 µg/mL in [12]; 32 µg/mL in assay [13]; 64 µg/mL in [14]; 2 µg/mL in assay [15]; 8 µg/mL in assay [16].
